From patent publication US7553860B2, “Substituted gamma lactams as therapeutic agents” (Allergan, Inc., priority 2006, dated 2009)

Experiments:
EP2 [1] = biological target: T1, EP2 (Homo sapiens, UniProt P43116); experiment: EP2 cAMP; assay type: cell-based
EP2 [2] = biological target: T1, EP2; experiment: EP2 competition binding ([3H]PGE2), Ki; design: expressed in transfected cells; host or cells: HEK 293; conditions: HEK 293 cells stably expressing human EP2, [3H]PGE2
Description: Competition binding experiments are performed in a medium containing Hank's balanced salt solution, Hepes 20 mM, pH 7.3, membranes (˜60 μg protein) or 2×10^5 cells from HEK 293 cells stably expressing human EP2 receptors, [^3H]PGE2 (10 nM) and various concentrations of test compounds in a total volume of 300 μl. Reaction mixtures are incubated at 23° C. for 60 min, and are filtered over Whatman GF/B filters under vacuum. Filters are washed three times with 5 ml ice-cold buffer containing 50 mM Tris/HCl (pH 7.3). Non-specific binding is estimated in the presence of excess unlabeled PGE2 (10 μM). Binding data fitted to the binding model for a single class of binding sites, using nonlinear regression analysis. IC50 values thus obtained are converted to Ki using the equation of Ki=(IC50/(1+[L]/KD) where [L] represents PGE2 concentration (10 nM) and KD the dissociation constant for [^3H]PGE2 at human EP2 receptors (40 nM). […]
The cell homogenate is centrifuged at 19000 r.p.m. for 20 min at 4° C. using a Beckman Ti-60 rotor. The resultant pellet is resuspended in TME buffer to give a final 1 mg/ml protein concentration, as determined by Biorad assay. […]
[^3H-] […] 17-phenyl PGF2[…] and non-specific binding determined with 10^−5M of unlabeled PGE2, or 17-phenyl PGF2α, according to receptor subtype studied.

hDP/Gqs5 = biological target: T2, hDP/Gqs5 (Homo sapiens, UniProt Q13258); experiment: FLIPR calcium signal, hDP; assay type: cell-based; conditions: HEK-293(EBNA) cells; read-out: Other Receptors (EC50 in nM) hDP
T2 construct: expressed in transfected cells; host or cells: HEK-293(EBNA)
T2 sequence (Q13258 1-359): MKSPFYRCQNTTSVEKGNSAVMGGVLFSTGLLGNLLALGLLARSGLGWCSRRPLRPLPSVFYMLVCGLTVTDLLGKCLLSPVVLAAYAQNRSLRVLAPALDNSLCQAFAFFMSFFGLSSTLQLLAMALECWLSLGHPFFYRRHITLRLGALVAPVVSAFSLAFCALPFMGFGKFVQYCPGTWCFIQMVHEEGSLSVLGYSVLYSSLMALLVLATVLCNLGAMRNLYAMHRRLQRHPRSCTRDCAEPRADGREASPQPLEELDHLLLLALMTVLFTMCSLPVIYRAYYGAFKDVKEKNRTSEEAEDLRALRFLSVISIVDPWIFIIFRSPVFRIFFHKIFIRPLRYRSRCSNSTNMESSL
Description: (§1) HEK-293(EBNA) cells, stably expressing one type or subtype of recombinant human prostaglandin receptors (prostaglandin receptors expressed: hDP/Gqs5; hEP1; hEP2/Gqs5; hEP3A/Gqi5; hEP4/Gqs5; hFP; hIP; hTP), are cultured in 100 mm culture dishes in high-glucose DMEM medium containing 10% fetal bovine serum, 2 mM I-glutamine, 250 μg/ml geneticin (G418) and 200 μg/ml hygromycin B as selection markers, and 100 units/ml penicillin G, 100 μg/ml streptomycin and 0.25 μg/ml amphotericin B.
(§2) Cells are seeded at a density of 5×10^4 cells per well in Biocoat® Poly-D-lysine-coated black-wall, clear-bottom 96-well plates (Becton-Dickinson) and allowed to attach overnight in an incubator at 37° C. Cells are then washed two times with HBSS-HEPES buffer (Hanks Balanced Salt Solution without bicarbonate and phenol red, 20 mM HEPES, pH 7.4) using a Denley Cellwash plate washer (Labsystems). […]
(§3) Cells are excited with an Argon laser at 488 nm, and emission is measured through a 510-570 nm bandwidth emission filter (FLIPR™, Molecular Devices, Sunnyvale, Calif.). […] The peak increase in fluorescence intensity is recorded for each well. […] The peak fluorescence change in each drug-containing well is then expressed relative to the controls. […]

hEP3A/Gqi5 = biological target: T3, hEP3A/Gqi5 (Homo sapiens, UniProt P43115); experiment: FLIPR calcium signal, hEP3A; assay type: cell-based; conditions: HEK-293(EBNA) cells; read-out: Other Receptors (EC50 in nM) hEP3A
T3 construct: expressed in transfected cells; host or cells: HEK-293(EBNA)
T3 sequence (P43115 1-390): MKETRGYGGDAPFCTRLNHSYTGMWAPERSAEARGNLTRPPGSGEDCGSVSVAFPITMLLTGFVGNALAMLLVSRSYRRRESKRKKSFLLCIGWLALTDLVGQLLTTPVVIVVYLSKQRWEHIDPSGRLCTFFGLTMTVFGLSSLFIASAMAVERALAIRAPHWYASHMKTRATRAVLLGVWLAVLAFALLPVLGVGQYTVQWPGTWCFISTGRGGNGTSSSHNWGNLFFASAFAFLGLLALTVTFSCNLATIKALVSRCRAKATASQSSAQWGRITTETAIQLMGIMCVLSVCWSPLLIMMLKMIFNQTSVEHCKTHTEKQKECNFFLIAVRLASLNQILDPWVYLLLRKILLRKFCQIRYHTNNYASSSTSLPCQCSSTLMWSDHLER
Description: as §1, §2, §3

hEP2/Gqs5 = biological target: T4, hEP2/Gqs5 (Homo sapiens, UniProt P43116); experiment: EP2 FLIPR calcium signal; assay type: cell-based; conditions: HEK-293(EBNA) cells
T4 construct: expressed in transfected cells; host or cells: HEK-293(EBNA)
Description: as §1, §2, §3

T1 sequence (P43116 whole entry): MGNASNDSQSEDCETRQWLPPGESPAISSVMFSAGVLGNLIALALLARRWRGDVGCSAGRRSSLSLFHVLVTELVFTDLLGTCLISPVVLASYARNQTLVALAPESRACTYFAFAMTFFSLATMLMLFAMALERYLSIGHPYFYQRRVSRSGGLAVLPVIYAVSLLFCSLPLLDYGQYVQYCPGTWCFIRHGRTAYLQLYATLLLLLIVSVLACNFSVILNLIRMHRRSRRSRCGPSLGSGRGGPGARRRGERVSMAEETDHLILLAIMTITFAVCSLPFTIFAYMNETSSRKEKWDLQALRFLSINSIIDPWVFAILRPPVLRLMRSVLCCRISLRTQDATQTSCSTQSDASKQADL
T4 sequence (P43116 whole entry): as above

EC50 (EP2 [1])	Ki (EP2 [2])	EC50 (hDP/Gqs5)	EC50 (hEP3A/Gqi5)	EC50 (hEP2/Gqs5)	SMILES
0.013 µM	1.04 µM				CCCCCC(F)c1ccc(N2C(=O)OC[C@@H]2COCc2ccc(C(=O)O)s2)cc1 (stereo partly drawn) [5-{(S)-3-[4-(1-Fluoro-hexyl)-phenyl]-2-oxo-oxazolidin-4-ylmethoxymethyl}-thiophene-2-carboxylic acid]
0.014 µM	2.71 µM	> 10000 nM	995 nM	0.817 µM	CCCCCC(O)c1ccc(N2C(=O)OC[C@@H]2COCc2ccc(C(=O)O)s2)cc1 (stereo partly drawn) [5-{(S)-3-[4-(1-Hydroxy-hexyl)-phenyl]-2-oxo-oxazolidin-4-ylmethoxymethyl}-thiophene-2-carboxylic acid]
